{"source": "paper PMC2791876", "about": "“Comparison of effects of green tea catechins on apicomplexan hexose transporters and mammalian orthologues” (Molecular and Biochemical Parasitology, 2009)", "key": {"[1]": {"target": "T1, Babesia bovis hexose transporter 1 (BboHT1) (Babesia bovis, UniProt B0LKY8)", "T1 sequence (B0LKY8 entry or part of it)": "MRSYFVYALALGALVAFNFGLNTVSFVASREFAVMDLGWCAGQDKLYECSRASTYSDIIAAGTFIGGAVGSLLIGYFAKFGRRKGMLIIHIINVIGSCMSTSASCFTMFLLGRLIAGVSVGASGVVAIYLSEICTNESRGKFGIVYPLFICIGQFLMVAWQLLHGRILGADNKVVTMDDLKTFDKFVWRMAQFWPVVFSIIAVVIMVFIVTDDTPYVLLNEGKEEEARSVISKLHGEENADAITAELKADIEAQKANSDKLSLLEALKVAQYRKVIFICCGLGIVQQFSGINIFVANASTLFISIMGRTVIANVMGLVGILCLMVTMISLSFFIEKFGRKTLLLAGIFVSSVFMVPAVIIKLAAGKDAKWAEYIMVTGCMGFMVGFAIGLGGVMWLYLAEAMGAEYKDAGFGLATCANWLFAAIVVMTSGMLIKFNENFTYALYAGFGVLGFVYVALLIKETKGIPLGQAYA", "set-up": "method as in PMID 18638508", "details": "cited from earlier work"}, "B. bovis parasites": {"tested_on": "B. bovis parasites", "set-up": "method as in PMID 18638508", "details": "cited from earlier work"}, "[2]": {"target": "T2, Plasmodium falciparum hexose transporter (PfHT) (Plasmodium falciparum, UniProt O97467)", "T2 construct": "expressed in transfected cells; host or cells: Xenopus laevis oocytes", "T2 sequence (O97467 1-504)": "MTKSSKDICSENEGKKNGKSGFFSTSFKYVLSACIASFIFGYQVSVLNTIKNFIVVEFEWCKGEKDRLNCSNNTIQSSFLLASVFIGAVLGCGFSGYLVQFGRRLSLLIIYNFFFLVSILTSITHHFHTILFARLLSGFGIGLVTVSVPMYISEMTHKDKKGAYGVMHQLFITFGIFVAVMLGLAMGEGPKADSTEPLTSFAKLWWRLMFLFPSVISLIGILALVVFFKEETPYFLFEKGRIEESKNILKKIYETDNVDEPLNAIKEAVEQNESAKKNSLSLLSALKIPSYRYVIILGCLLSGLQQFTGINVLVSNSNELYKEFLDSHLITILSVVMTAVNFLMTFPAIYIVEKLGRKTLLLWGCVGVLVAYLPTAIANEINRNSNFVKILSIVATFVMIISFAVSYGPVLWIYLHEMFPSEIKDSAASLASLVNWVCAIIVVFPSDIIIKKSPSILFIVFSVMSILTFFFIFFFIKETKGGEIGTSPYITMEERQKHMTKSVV", "details": "cited from earlier work; for Km: substrate Km, read-out: Km for transport via PfHT"}, "[3]": {"tested_on": "Babesia divergens (strain Rouen 1987)", "assay": "Babesia divergens growth inhibition", "type": "cell-based", "details": "B. divergens, mean ± SEM; for inhibition of parasite growth: 200 μM, n = 3", "protocol": "(§1) Furthermore, given that catechins are competitive inhibitors of D-glucose transport mediated by GLUT1 [8], the relationship between external D-glucose concentration and IC50 values was examined. […] The effect of catechins was also tested on Babesia divergens (strain Rouen 1987) growth as described."}, "L323N BboHT1": {"tested_on": "L323N BboHT1", "assay": "D-glucose uptake by mutant L323N BboHT1 in X. laevis oocytes", "type": "cell-based, Babesia bovis", "details": "0.5 mM catechin; L323N vs wild-type; P < 0.001"}, "GLUT5": {"target": "T3, GLUT5 (Homo sapiens, UniProt P22732)", "T3 construct": "expressed in transfected cells; host or cells: Xenopus laevis oocytes", "T3 sequence (P22732 1-501)": "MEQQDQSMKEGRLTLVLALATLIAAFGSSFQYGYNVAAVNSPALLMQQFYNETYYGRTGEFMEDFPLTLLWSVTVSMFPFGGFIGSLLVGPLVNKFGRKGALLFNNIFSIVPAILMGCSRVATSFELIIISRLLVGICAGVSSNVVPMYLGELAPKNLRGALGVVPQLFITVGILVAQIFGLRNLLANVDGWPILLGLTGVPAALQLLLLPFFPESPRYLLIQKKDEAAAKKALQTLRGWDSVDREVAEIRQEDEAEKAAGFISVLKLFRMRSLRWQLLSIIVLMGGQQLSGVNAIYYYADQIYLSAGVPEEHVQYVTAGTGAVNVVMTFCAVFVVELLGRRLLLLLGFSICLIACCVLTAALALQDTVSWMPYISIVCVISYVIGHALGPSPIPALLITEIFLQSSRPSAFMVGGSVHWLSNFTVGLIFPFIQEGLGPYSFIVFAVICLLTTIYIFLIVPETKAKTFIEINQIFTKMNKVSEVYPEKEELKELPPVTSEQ", "assay": "D-fructose transport via GLUT5 expressed in Xenopus laevis oocytes", "type": "cell-based, mammalian", "details": "D-fructose (100 μM) transport, X. laevis oocytes, room temperature; mean ± SEM (n ≥ 3)", "protocol": "(§2) The effect of the green tea catechins, EC, ECG, EGC and EGCG, on D-glucose transport via PfHT, GLUT1 and the Babesia bovis hexose transporter 1 (BboHT1; [12]) and D-fructose transport via GLUT5 was assayed in Xenopus laevis oocytes expressing each of the hexose transporters, using methods described previously."}, "[4]": {"target": "T2, Plasmodium falciparum hexose transporter (PfHT)", "assay": "cell-based", "details": "D-glucose (38 μM) transport, X. laevis oocytes, room temperature; mean ± SEM (n ≥ 3)", "protocol": "as §2"}, "[5]": {"target": "T4, mammalian facilitative glucose transporter 1 (GLUT1) (Homo sapiens, UniProt P11166)", "T4 construct": "expressed in transfected cells; host or cells: Xenopus laevis oocytes", "T4 sequence (P11166 1-492)": "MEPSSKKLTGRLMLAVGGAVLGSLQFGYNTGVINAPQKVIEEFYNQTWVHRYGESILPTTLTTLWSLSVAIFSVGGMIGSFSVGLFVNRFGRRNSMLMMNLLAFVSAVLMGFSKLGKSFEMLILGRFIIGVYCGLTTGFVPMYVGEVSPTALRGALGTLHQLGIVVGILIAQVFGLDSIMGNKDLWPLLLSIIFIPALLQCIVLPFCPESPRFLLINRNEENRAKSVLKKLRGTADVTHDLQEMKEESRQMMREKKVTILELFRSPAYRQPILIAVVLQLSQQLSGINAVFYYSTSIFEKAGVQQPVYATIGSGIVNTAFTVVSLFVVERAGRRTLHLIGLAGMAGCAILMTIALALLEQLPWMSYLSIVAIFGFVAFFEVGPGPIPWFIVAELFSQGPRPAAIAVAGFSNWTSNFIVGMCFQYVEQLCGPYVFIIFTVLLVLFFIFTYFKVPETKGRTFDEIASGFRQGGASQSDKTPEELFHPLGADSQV", "assay": "D-glucose transport via GLUT1 expressed in Xenopus laevis oocytes", "type": "cell-based", "details": "D-glucose (38 μM) transport, X. laevis oocytes, room temperature; mean ± SEM (n ≥ 3)", "protocol": "as §2"}, "[6]": {"target": "T1, Babesia bovis hexose transporter 1 (BboHT1)", "assay": "D-glucose transport via BboHT1 expressed in Xenopus laevis oocytes", "type": "cell-based", "details": "X. laevis oocytes, room temperature, mean ± SEM (n ≥ 3)", "protocol": "as §2, with “previously. The compounds were tested initially at a concentration of 0.5 mM (data not shown).” for “previously.”"}, "GLUT1": {"target": "GLUT1", "set-up": "method as in PMID 12970085", "details": "human erythrocytes, zero-trans D-glucose efflux; read-out: Ki for D-glucose transport via GLUT1, published previously; cited from earlier work"}, "P. falciparum (3D7)": {"tested_on": "P. falciparum (3D7)", "assay": "P. falciparum growth in vitro", "type": "cell-based, Plasmodium falciparum", "details": "P. falciparum 3D7, 12 mM D-glucose, 48 h; mean ± SEM (n ≥ 3); read-out: IC50 parasite growth", "protocol": "as §1"}, "PfHT": {"target": "T5, PfHT (Plasmodium falciparum, UniProt O97467)", "T5 construct": "expressed in transfected cells; host or cells: Xenopus laevis oocytes", "assay": "3-O-methyl-D-glucose (3OMG) transport via PfHT in X. laevis oocytes", "type": "cell-based", "details": "3OMG (17 μM), mean ± SEM, n = 3"}}}
{"molecule": "C=CCCCCCCCCCO[C@H]1[C@H](O)[C@@H](CO)OC(O)[C@@H]1O", "note": "(stereo partly drawn) [compound 3361]", "values": [{"measurement": "inhibition of BboHT1", "setting": "[1]", "result": "good inhibitor"}, {"measurement": "killing of B. bovis parasites in culture", "setting": "B. bovis parasites", "result": "did not kill"}, {"measurement": "inhibition of D-glucose transport via PfHT (mode)", "setting": "[2]", "result": "specific and competitive inhibitor"}]}
{"molecule": "Oc1cc(O)c2c(c1)O[C@H](c1ccc(O)c(O)c1)[C@H](O)C2", "note": "[EC, (−)-epicatechin]", "values": [{"measurement": "inhibition at 200 µM", "setting": "[3]; Babesia divergens, n = 3, read-out: inhibition of parasite growth", "result": "66 ± 14", "unit": "%"}, {"measurement": "effect on D-glucose uptake by mutant versus wild-type BboHT1", "setting": "L323N BboHT1", "result": "affected significantly less"}, {"measurement": "Ki", "setting": "GLUT5", "result": "> 500", "unit": "µM"}, {"measurement": "Ki", "setting": "[4]", "result": "> 500", "unit": "µM"}, {"measurement": "Ki", "setting": "[5]", "result": "~500", "unit": "µM"}, {"measurement": "Ki", "setting": "[6]", "result": "108 ± 52", "unit": "µM"}]}
{"molecule": "(−)-epigallocatechin-gallate [EGCG]", "values": [{"measurement": "inhibition of parasite growth", "setting": "[3]", "result": "71 ± 2", "unit": "%"}, {"measurement": "Ki", "setting": "GLUT5", "result": "113 ± 48", "unit": "µM"}, {"measurement": "Ki", "setting": "[4]", "result": "90 ± 24", "unit": "µM"}, {"measurement": "Ki", "setting": "GLUT1", "result": 0.97, "unit": "µM"}, {"measurement": "Ki", "setting": "[5]", "result": "105 ± 18", "unit": "µM"}, {"measurement": "IC50", "setting": "P. falciparum (3D7)", "result": "17 ± 3", "unit": "µM"}, {"measurement": "Ki", "setting": "[6]", "result": "> 500", "unit": "µM"}]}
{"molecule": "O=C(O[C@@H]1Cc2c(O)cc(O)cc2O[C@@H]1c1ccc(O)c(O)c1)c1cc(O)c(O)c(O)c1", "note": "[ECG, (−)-epicatechin-gallate]", "values": [{"measurement": "Ki", "setting": "PfHT", "result": "18 ± 3", "unit": "µM"}, {"measurement": "Ki", "setting": "GLUT5", "result": "117 ± 54", "unit": "µM"}, {"measurement": "Ki", "setting": "[4]", "result": "45 ± 10", "unit": "µM"}, {"measurement": "Ki", "setting": "GLUT1", "result": 0.14, "unit": "µM"}, {"measurement": "Ki", "setting": "[5]", "result": "68 ± 18", "unit": "µM"}, {"measurement": "IC50", "setting": "P. falciparum (3D7)", "result": "32 ± 1", "unit": "µM"}, {"measurement": "Ki", "setting": "[6]", "result": "> 500", "unit": "µM"}]}
{"molecule": "CO[C@@H]([C@H](O)[C@H](O)CO)[C@@H](O)C=O", "note": "[3OMG, 3-O-methyl-D-glucose]", "values": [{"measurement": "Km", "setting": "[2]", "result": 1300, "unit": "µM"}]}
{"molecule": "Oc1cc(O)c2c(c1)O[C@H](c1cc(O)c(O)c(O)c1)[C@H](O)C2", "note": "[EGC, (−)-epigallocatechin]", "values": [{"measurement": "inhibition of parasite growth", "setting": "[3]", "result": "30 ± 10", "unit": "%"}, {"measurement": "Ki", "setting": "GLUT5", "result": "> 500", "unit": "µM"}, {"measurement": "Ki", "setting": "[4]", "result": "> 500", "unit": "µM"}, {"measurement": "Ki", "setting": "[5]", "result": "> 500", "unit": "µM"}, {"measurement": "Ki", "setting": "[6]", "result": "168 ± 83", "unit": "µM"}]}
{"molecule": "OC[C@H]1OC(O)[C@H](O)[C@@H](O)[C@@H]1O", "note": "(stereo partly drawn) [D-glucose]", "values": [{"measurement": "Km", "setting": "[2]", "result": 1000, "unit": "µM"}]}
